Measurements reported in ChEMBL document CHEMBL3091421, “Discovery of benzo[d]imidazo[5,1-b]thiazole as a new class of phosphodiesterase 10A inhibitors” (Bioorg Med Chem Lett, 2013).

Tests used:
Rattus norvegicus [1] = assay: Antipsychotic activity in Sprague-Dawley rat psychosis model assessed as inhibition of MK-801-induced stereotypy at 10 mg/kg, ip administered 5 mins prior to MK-801-challenge measured after 15 mins up to 1 hr relative to vehicle-treated control; type: functional; conditions: route intraperitoneal
Homo sapiens [2] = species on record: Homo sapiens; assay: Selectivity ratio of IC50 for PDE5A (unknown origin) to IC50 for human recombinant PDE10A
Rattus norvegicus [3] = assay: Antipsychotic activity in Sprague-Dawley rat psychosis model assessed as inhibition of MK-801-induced ataxia at 0.3 mg/kg, ip administered 5 mins prior to MK-801-challenge measured after 15 mins up to 1 hr relative to vehicle-treated control; type: functional; conditions: route intraperitoneal
Rattus norvegicus [4] = assay: Antipsychotic activity in Sprague-Dawley rat psychosis model assessed as inhibition of MK-801-induced locomotion at 6 mg/kg, ip administered 5 mins prior to MK-801-challenge measured after 15 mins up to 1 hr relative to vehicle-treated control; type: functional; conditions: route intraperitoneal
Rattus norvegicus [5] = assay: Antipsychotic activity in Sprague-Dawley rat psychosis model assessed as inhibition of MK-801-induced locomotion at 10 mg/kg, ip administered 5 mins prior to MK-801-challenge measured after 15 mins up to 1 hr relative to vehicle-treated control; type: functional; conditions: route intraperitoneal
Homo sapiens [6] = species on record: Homo sapiens; assay: Selectivity ratio of IC50 for PDE8A (unknown origin) to IC50 for human recombinant PDE10A
Rattus norvegicus [7] = assay: Antipsychotic activity in Sprague-Dawley rat psychosis model assessed as inhibition of MK-801-induced stereotypy at 0.3 mg/kg, ip administered 5 mins prior to MK-801-challenge measured after 15 mins up to 1 hr relative to vehicle-treated control; type: functional; conditions: route intraperitoneal
Mus musculus [8] = assay: Antipsychotic activity in ip dosed CD-1 mouse assessed as reduction in apomorphine-induced climbing behavior administered 15 mins prior to apomorphine-challenge measured immediately relative to vehicle-treated control; type: functional; conditions: CD-1, ip
[9] = molecular target: cGMP-inhibited 3',5'-cyclic phosphodiesterase 3A (Homo sapiens) (UniProt Q14432); assay: Inhibition of PDE3A (unknown origin) using cAMP as substrate at 10 uM after 30 mins by HTRF method
[10] = Metabolic stability in rat liver microsomes assessed as compound remaining after 60 mins; type: ADME; conditions: read-out: Stability
Rattus norvegicus [11] = assay: Antipsychotic activity in Sprague-Dawley rat conditioned avoidance response model assessed as reduction in avoidance at 1 mg/kg, ip after 15 mins relative to vehicle-treated control; type: functional; design: scale not given: the % may be the effect or the level left; conditions: route intraperitoneal
[12] = molecular target: High affinity cAMP-specific and IBMX-insensitive 3',5'-cyclic phosphodiesterase 8A (Homo sapiens) (UniProt O60658); assay: Inhibition of PDE8A (unknown origin) using [3H]-cAMP as substrate at 10 uM after 30 mins by radiometric assay
Rattus norvegicus [13] = assay: Antipsychotic activity in Sprague-Dawley rat psychosis model assessed as inhibition of MK-801-induced locomotion at 3 mg/kg, ip administered 5 mins prior to MK-801-challenge measured after 15 mins up to 1 hr relative to vehicle-treated control; type: functional; conditions: route intraperitoneal
Homo sapiens [14] = species on record: Homo sapiens; assay: Selectivity ratio of IC50 for PDE3A (unknown origin) to IC50 for human recombinant PDE10A
Rattus norvegicus [15] = assay: Antipsychotic activity in Sprague-Dawley rat psychosis model assessed as inhibition of MK-801-induced stereotypy at 3 mg/kg, ip administered 5 mins prior to MK-801-challenge measured after 15 mins up to 1 hr relative to vehicle-treated control; type: functional; conditions: route intraperitoneal
Homo sapiens [16] = species on record: Homo sapiens; assay: Selectivity ratio of IC50 for PDE9A2 (unknown origin) to IC50 for human recombinant PDE10A
Mus musculus [17] = assay: Antipsychotic activity in ip dosed CD-1 mouse assessed as reduction in apomorphine-induced sniffing behavior administered 15 mins prior to apomorphine-challenge measured immediately relative to vehicle-treated control; type: functional; conditions: CD-1, ip
[18] = molecular target: 3',5'-cyclic-AMP phosphodiesterase 4D (Homo sapiens) (UniProt Q08499); assay: Inhibition of PDE4D (unknown origin) using cAMP as substrate at 10 uM after 30 mins
[19] = Cmax in Sprague-Dawley rat at 10 mg/kg, po by LC-MS/MS analysis; type: ADME, organism-based; design: dose 10 mg/kg, route oral; conditions: in vivo
Rattus norvegicus [20] = assay: Antipsychotic activity in Sprague-Dawley rat psychosis model assessed as inhibition of MK-801-induced ataxia at 3 mg/kg, ip administered 5 mins prior to MK-801-challenge measured after 15 mins up to 1 hr relative to vehicle-treated control; type: functional; conditions: route intraperitoneal
Homo sapiens [21] = species on record: Homo sapiens; assay: Selectivity ratio of IC50 for PDE11A (unknown origin) to IC50 for human recombinant PDE10A
Rattus norvegicus [22] = assay: Antipsychotic activity in Sprague-Dawley rat conditioned avoidance response model assessed as reduction in avoidance at 3 mg/kg, ip after 15 mins relative to vehicle-treated control; type: functional; design: scale not given: the % may be the effect or the level left; conditions: route intraperitoneal
Rattus norvegicus [23] = assay: Antipsychotic activity in Sprague-Dawley rat psychosis model assessed as inhibition of MK-801-induced ataxia at 10 mg/kg, ip administered 5 mins prior to MK-801-challenge measured after 15 mins up to 1 hr relative to vehicle-treated control; type: functional; conditions: route intraperitoneal
[24] = AUC (0 to 24 hrs) in Sprague-Dawley rat at 10 mg/kg, po by LC-MS/MS analysis; type: ADME, organism-based; design: time < 24 hr, dose 10 mg/kg, route oral; conditions: plasma
Rattus norvegicus [25] = assay: Antipsychotic activity in Sprague-Dawley rat assessed as reduction in quipazine-induced head-twitches at 3 mg/kg, ip administered 15 mins prior to quipazine-challenge measured immediately relative to vehicle-treated control; type: functional; design: scale not given: the % may be the effect or the level left; conditions: route intraperitoneal
Mus musculus [26] = assay: Ratio of ED50 for antipsychotic activity in ip dosed CD-1 mouse assessed as reduction in apomorphine-induced sniffing behavior to ED50 for antipsychotic activity in ip dosed CD-1 mouse assessed as reduction in apomorphine-induced climbing behavior; type: functional

Sequence of cGMP-inhibited 3',5'-cyclic phosphodiesterase 3A (Homo sapiens) (Q14432 whole entry): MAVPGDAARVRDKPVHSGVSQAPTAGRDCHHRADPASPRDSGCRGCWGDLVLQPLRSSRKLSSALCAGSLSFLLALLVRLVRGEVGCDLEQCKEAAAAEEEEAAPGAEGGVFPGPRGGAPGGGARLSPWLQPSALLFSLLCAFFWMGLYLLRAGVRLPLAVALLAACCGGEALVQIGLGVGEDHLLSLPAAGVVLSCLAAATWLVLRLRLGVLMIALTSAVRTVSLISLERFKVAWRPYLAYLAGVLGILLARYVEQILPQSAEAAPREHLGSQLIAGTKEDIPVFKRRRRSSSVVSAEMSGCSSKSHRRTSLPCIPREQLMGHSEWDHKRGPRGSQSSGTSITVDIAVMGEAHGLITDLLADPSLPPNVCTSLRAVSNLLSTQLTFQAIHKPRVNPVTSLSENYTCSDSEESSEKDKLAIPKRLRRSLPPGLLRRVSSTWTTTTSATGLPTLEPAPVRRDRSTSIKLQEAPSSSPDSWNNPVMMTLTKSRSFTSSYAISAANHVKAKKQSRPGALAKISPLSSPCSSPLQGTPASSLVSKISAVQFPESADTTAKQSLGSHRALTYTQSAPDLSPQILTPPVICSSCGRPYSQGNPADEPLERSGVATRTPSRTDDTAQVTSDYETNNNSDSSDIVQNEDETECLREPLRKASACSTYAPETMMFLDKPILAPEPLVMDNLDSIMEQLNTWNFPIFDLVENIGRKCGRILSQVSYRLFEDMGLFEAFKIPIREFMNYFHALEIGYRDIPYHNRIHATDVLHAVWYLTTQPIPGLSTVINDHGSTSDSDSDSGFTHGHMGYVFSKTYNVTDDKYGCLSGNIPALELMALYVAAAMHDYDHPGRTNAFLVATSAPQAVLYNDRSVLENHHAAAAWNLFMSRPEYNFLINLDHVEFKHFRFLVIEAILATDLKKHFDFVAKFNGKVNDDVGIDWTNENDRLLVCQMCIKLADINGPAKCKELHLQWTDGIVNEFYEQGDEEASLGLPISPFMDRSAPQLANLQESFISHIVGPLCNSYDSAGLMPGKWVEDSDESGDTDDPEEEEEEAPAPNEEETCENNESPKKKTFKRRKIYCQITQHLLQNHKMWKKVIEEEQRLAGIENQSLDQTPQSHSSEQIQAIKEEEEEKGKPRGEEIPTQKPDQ
Sequence of High affinity cAMP-specific and IBMX-insensitive 3',5'-cyclic phosphodiesterase 8A (Homo sapiens) (O60658 whole entry): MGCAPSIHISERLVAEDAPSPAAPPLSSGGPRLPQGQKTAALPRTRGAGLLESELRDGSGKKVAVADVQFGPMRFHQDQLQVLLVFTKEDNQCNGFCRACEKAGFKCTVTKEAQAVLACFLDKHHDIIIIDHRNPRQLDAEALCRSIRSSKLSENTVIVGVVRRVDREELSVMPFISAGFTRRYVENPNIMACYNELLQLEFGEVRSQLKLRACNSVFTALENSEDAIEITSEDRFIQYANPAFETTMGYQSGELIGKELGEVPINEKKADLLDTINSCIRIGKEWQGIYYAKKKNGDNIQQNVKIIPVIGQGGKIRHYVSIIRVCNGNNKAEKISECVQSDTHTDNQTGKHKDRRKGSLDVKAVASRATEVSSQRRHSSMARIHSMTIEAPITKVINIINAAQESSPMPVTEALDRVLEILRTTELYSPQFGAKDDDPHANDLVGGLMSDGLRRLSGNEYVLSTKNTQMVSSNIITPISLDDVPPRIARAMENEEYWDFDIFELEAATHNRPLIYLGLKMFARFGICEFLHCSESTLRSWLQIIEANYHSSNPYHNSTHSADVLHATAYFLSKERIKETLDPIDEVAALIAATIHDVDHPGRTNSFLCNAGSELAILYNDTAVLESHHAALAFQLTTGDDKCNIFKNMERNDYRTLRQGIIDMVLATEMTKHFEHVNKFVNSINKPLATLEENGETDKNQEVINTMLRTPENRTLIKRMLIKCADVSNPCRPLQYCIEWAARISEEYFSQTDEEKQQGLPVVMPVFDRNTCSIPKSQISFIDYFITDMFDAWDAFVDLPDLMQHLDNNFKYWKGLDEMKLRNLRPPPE
Sequence of 3',5'-cyclic-AMP phosphodiesterase 4D (Homo sapiens) (Q08499 whole entry): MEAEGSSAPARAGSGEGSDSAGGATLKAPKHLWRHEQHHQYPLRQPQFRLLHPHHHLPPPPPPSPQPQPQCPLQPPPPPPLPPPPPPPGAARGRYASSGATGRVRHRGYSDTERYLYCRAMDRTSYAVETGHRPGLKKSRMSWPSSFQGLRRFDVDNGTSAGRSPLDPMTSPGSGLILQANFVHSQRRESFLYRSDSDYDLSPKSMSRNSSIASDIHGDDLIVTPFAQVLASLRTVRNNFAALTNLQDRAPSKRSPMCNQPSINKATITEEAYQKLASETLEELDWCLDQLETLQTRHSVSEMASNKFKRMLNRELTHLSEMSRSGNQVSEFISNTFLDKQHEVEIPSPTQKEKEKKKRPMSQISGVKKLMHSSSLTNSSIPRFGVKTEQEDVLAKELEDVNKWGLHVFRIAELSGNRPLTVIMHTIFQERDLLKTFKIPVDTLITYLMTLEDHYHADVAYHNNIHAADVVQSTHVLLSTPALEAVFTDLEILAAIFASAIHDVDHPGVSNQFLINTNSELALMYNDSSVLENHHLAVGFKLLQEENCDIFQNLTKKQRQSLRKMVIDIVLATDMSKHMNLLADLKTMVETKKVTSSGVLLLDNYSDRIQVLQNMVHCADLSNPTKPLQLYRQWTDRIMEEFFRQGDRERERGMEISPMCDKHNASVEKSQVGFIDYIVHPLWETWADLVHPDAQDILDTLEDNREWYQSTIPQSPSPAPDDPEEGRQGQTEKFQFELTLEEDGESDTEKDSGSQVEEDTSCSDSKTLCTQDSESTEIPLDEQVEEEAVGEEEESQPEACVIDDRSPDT

Cc1nc(C2CCOCC2)n2c1sc1cc(OCc3ccc4ccccc4n3)ccc12
inhibition in vivo at 10 mg/kg (Rattus norvegicus [1]): 66%
Ratio IC50 (Homo sapiens [2]): > 500
inhibition in vivo at 0.3 mg/kg (Rattus norvegicus [3]): 3%
inhibition in vivo at 6 mg/kg (Rattus norvegicus [4]): 76%
inhibition in vivo at 10 mg/kg (Rattus norvegicus [5]): 83%
Ratio IC50 (Homo sapiens [6]): > 500
inhibition in vivo at 0.3 mg/kg (Rattus norvegicus [7]): 58%
ED50 (Mus musculus [8]): 2.68 mg/kg
inhibition [9]: 11.3%
remaining at 1 h [10]: 65%
Activity (Rattus norvegicus [11]): 26%
inhibition [12]: 18.5%
inhibition in vivo at 3 mg/kg (Rattus norvegicus [13]): 58%
Ratio IC50 (Homo sapiens [14]): > 500
inhibition in vivo at 3 mg/kg (Rattus norvegicus [15]): 27%
Ratio IC50 (Homo sapiens [16]): > 500
ED50 (Mus musculus [17]): 16.3 mg/kg
inhibition [18]: 0%
Cmax [19]: 720 ng/mL
inhibition in vivo at 3 mg/kg (Rattus norvegicus [20]): 56%
Ratio IC50 (Homo sapiens [21]): > 500
Activity (Rattus norvegicus [22]): 67%
inhibition in vivo at 10 mg/kg (Rattus norvegicus [23]): 82%
AUC(0-t) at 24 h [24]: 2830 ng·h/mL
Activity (Rattus norvegicus [25]): 67%
Ratio ED50 (Mus musculus [26]): 6.08
